The source made the active and inactive calls. The rule behind the calls is not given here.
Tests used:
Oryza sativa [1] = experiment: Phytotoxicity against transplanted Oryza sativa (rice) seedlings assessed as phytotoxic activity ratings (0- no effect to 5-complete killing rating scale) at 100 g/a measured after 3 weeks post compound treatment under green house conditions; type: organism-based; details: in vivo, 504 h
Cyperus serotinus = experiment: Herbicidal activity against Cyperus serotinus assessed as phytotoxic activity ratings (0- no effect to 5-complete killing rating scale) at 3.1 to 100 g/a measured after 3 weeks post compound treatment under green house conditions; type: functional
Echinochloa oryzicola = experiment: Herbicidal activity against Echinochloa oryzicola assessed as phytotoxic activity ratings (0- no effect to 5-complete killing rating scale) at 100 g/a measured after 3 weeks post compound treatment under green house conditions; type: functional
Oryza sativa [2] = experiment: Phytotoxicity against directly seeded Oryza sativa (rice) seedlings assessed as phytotoxic activity ratings (0- no effect to 5-complete killing rating scale) at 100 g/a measured after 3 weeks post compound treatment under green house conditions; type: organism-based; details: in vivo, 504 h
[3] = system: Schoenoplectiella juncoides; experiment: Herbicidal activity against Schoenoplectiella juncoides var. Hotarui Ohwi assessed as phytotoxic activity ratings (0- no effect to 5-complete killing rating scale) at 100 g/a measured after 3 weeks post compound treatment under green house conditions; type: functional
Cyperus difformis = experiment: Herbicidal activity against Cyperus difformis assessed as phytotoxic activity ratings (0- no effect to 5-complete killing rating scale) at 100 g/a measured after 3 weeks post compound treatment under green house conditions; type: functional

| SMILES | Activity (Oryza sativa [1]) | Activity (Cyperus serotinus) | Activity (Echinochloa oryzicola) | Activity (Oryza sativa [2]) | Activity [3] | Activity (Cyperus difformis) |
| --- | --- | --- | --- | --- | --- | --- |
| C[C@@H](NC(=O)Nc1cc(F)ccc1F)c1ccccc1 | 0% | inactive | 0% | 0% | 0% | 0% |
| C[C@@H](NC(=O)Nc1cc(C(F)(F)F)cc(C(F)(F)F)c1)c1ccccc1 | 0% | inactive | 0% | 0% | 0% | 0% |
| C[C@@H](NC(=O)Nc1cccc(I)c1)c1ccccc1 | 0% | inactive | 0% | 0% | 0% | 10% |
| C[C@@H](NC(=O)Nc1cccc(Cl)c1)c1ccccc1 | 0% | inactive | 0% | 0% | 0% | 10% |
| CCCCc1ccc(NC(=O)N[C@H](C)c2ccccc2)cc1 | 0% | inactive | 10% | 10% | 0% | 0% |
| C[C@@H](NC(=O)Nc1cc(C(C)(C)C)ccc1C(C)(C)C)c1ccccc1 | 0% | inactive | 0% | 0% | 0% | 0% |
| C[C@@H](NC(=O)Nc1cccc(F)c1F)c1ccccc1 | 0% | inactive | 0% | 0% | 0% | 10% |
| CC(=O)c1ccc(NC(=O)N[C@H](C)c2ccccc2)cc1 | 0% | inactive | 40% | 0% | 0% | 0% |
| C[C@@H](NC(=O)Nc1ccccc1Cl)c1ccccc1 | 0% | inactive | 0% | 0% | 0% | 10% |
| CCOC(=O)c1cccc(NC(=O)N[C@H](C)c2ccccc2)c1 | 0% | inactive | 0% | 0% | 0% | 0% |
| CCCCCCCc1ccc(NC(=O)N[C@@H](C)c2ccccc2)cc1 | 0% | inactive | 0% | 0% | 0% | 0% |
| C[C@H](NC(=O)Nc1cc(C(F)(F)F)ccc1F)c1ccccc1 | 0% | inactive | 0% | 0% | 0% | 0% |
| CCCCCc1ccc(NC(=O)N[C@H](C)c2ccccc2)cc1 | 0% | inactive | 0% | 0% | 0% | 0% |
| C[C@H](NC(=O)Nc1ccc(Cl)c(Cl)c1)c1ccccc1 | 0% | inactive | 0% | 0% | 0% | 0% |
| C[C@H](NC(=O)Nc1cccc(Cl)c1)c1ccccc1 | 0% | inactive | 0% | 0% | 0% | 10% |
| C[C@@H](NC(=O)Nc1ccccc1Br)c1ccccc1 | 0% | inactive | 0% | 0% | 0% | 10% |
| CC(=O)c1cccc(NC(=O)N[C@H](C)c2ccccc2)c1 | 0% | inactive | 0% | 0% | 0% | 0% |
| C[C@H](NC(=O)Nc1cccc(Cl)c1Cl)c1ccccc1 | 0% | inactive | 0% | 0% | 0% | 0% |
| C[C@H](NC(=O)Nc1ccc(F)cc1F)c1ccccc1 | 0% | inactive | 0% | 0% | 0% | 0% |
| COc1ccccc1NC(=O)N[C@@H](C)c1ccccc1 | 0% | inactive | 0% | 0% | 0% | 0% |
| Cc1ccc(NC(=O)N[C@@H](C)c2ccccc2)c(F)c1 | 0% | inactive | 0% | 0% | 0% | 0% |

| SMILES | Activity (Oryza sativa [1]) | Activity (Cyperus serotinus) | Activity (Echinochloa oryzicola) | Activity (Oryza sativa [2]) | Activity [3] | Activity (Cyperus difformis) |
| --- | --- | --- | --- | --- | --- | --- |
| C[C@@H](NC(=O)Nc1ccc(F)cc1)c1ccccc1 | 0% | inactive | 0% | 0% | 0% | 0% |
| C[C@@H](NC(=O)Nc1ccc(Cl)cc1)c1ccccc1 | 0% | inactive | 0% | 0% | 0% | 0% |
| C[C@@H](NC(=O)Nc1ccc(Br)cc1)c1ccccc1 | 0% | inactive | 0% | 0% | 0% | 0% |
| C[C@@H](NC(=O)Nc1ccc(I)cc1)c1ccccc1 | 0% | inactive | 0% | 0% | 0% | 0% |
| CCc1cccc(CC)c1NC(=O)N[C@@H](C)c1ccccc1 | 0% | inactive | 0% | 0% | 0% | 0% |
| CCCCCc1ccc(NC(=O)N[C@@H](C)c2ccccc2)cc1 | 0% | inactive | 0% | 0% | 0% | 0% |
| C[C@@H](NC(=O)Nc1cccc(F)c1)c1ccccc1 | 0% | inactive | 0% | 0% | 0% | 10% |
| C[C@H](NC(=O)Nc1ccc(C(C)(C)C)cc1)c1ccccc1 | 0% | inactive | 10% | 0% | 0% | 0% |
| C[C@@H](NC(=O)Nc1cccc(Cl)c1Cl)c1ccccc1 | 0% | inactive | 0% | 0% | 0% | 0% |
| CC(=O)c1cccc(NC(=O)N[C@@H](C)c2ccccc2)c1 | 0% | inactive | 0% | 0% | 0% | 0% |
| C[C@@H](NC(=O)Nc1ccc(F)c(F)c1)c1ccccc1 | 0% | inactive | 0% | 0% | 0% | 0% |
| CCOC(=O)c1ccccc1NC(=O)N[C@H](C)c1ccccc1 | 0% | inactive | 0% | 0% | 0% | 0% |
| C[C@@H](NC(=O)Nc1cccc(Br)c1)c1ccccc1 | 0% | inactive | 0% | 0% | 0% | 10% |
| C[C@H](NC(=O)Nc1ccccc1Br)c1ccccc1 | 0% | inactive | 0% | 0% | 0% | 10% |
| C[C@@H](NC(=O)Nc1ccc(F)cc1F)c1ccccc1 | 0% | inactive | 0% | 0% | 0% | 0% |
| COc1ccc(NC(=O)N[C@@H](C)c2ccccc2)cc1 | 0% | inactive | 0% | 0% | 0% | 0% |
| C[C@@H](NC(=O)Nc1ccc(Cl)c(Cl)c1)c1ccccc1 | 0% | inactive | 0% | 0% | 0% | 0% |
| CCCCc1ccc(NC(=O)N[C@@H](C)c2ccccc2)cc1 | 0% | inactive | 10% | 10% | 0% | 0% |
| CCOC(=O)c1ccc(NC(=O)N[C@@H](C)c2ccccc2)cc1 | 0% | inactive | 0% | 0% | 0% | 0% |
| COc1ccc(NC(=O)N[C@H](C)c2ccccc2)cc1 | 0% | inactive | 0% | 0% | 0% | 0% |

Source: ChEMBL document CHEMBL3046383, “Enantioselective Herbicidal Activity of Chiral α-Methylbenzylphenylureas against Cyperaceae and Echinochloa Paddy Weeds” (Biosci Biotechnol Biochem, 1998)
